# Target: PIK3CG (human) (UniProt P48736)
# Assay: Inhibition of PIK3CG Kinase Activity
# PIK3CG (human), sequence (P48736 whole entry, looked up): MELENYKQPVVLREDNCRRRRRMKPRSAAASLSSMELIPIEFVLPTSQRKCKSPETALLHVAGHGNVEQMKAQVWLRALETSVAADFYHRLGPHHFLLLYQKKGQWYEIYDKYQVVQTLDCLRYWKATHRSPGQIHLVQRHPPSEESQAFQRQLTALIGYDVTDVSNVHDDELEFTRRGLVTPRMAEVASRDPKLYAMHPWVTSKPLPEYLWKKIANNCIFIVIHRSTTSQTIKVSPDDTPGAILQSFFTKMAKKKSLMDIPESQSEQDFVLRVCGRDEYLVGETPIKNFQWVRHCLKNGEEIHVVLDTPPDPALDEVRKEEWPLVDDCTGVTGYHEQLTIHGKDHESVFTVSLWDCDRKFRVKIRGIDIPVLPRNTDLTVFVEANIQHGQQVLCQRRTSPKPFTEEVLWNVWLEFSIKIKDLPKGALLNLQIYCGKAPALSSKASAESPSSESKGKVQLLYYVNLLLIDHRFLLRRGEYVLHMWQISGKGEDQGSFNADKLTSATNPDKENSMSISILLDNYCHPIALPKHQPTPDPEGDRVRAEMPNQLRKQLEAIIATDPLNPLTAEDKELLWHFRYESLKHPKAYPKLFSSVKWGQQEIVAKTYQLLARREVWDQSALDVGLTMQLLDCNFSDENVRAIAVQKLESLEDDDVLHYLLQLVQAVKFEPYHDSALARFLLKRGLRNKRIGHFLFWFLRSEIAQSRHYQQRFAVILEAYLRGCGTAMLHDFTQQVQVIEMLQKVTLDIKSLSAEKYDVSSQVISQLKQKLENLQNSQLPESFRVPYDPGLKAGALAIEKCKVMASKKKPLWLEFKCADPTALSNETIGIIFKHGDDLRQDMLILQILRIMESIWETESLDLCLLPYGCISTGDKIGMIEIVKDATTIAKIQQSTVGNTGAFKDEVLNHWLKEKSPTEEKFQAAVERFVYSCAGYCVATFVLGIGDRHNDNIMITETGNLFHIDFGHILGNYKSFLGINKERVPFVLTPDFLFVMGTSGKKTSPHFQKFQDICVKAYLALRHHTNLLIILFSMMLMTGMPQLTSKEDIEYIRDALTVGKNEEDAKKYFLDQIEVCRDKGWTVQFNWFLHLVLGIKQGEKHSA
row,SMILES,IC50 [nM]
1,CNC(=O)Nc1nc2c(s1)-c1c(cnn1-c1cc(Cl)ccc1Cl)C2,< 800
2,O=C(NCc1cc(C2CC2)n[nH]1)Nc1nc2c(s1)-c1c(cnn1-c1ccccc1Cl)C2,< 800
3,CC(C)n1nc(CCNC(=O)Nc2nc3c(s2)-c2c(cnn2-c2ccccc2C(F)(F)F)C3)cc1N,< 800
4,CN1CCC(CNC(=O)Nc2nc3c(s2)-c2c(cnn2-c2ccccc2Cl)C3)CC1,< 800
5,CCCCn1nc(CCNC(=O)Nc2nc3c(s2)-c2c(cnn2-c2ccccc2C(F)(F)F)C3)cc1N,< 800
6,O=C(NCCCN1CCNC1=O)Nc1nc2c(s1)-c1c(cnn1-c1ccccc1Cl)C2,< 800
7,NC(=O)c1cccc(CNC(=O)Nc2nc3c(s2)-c2c(cnn2-c2ccccc2C(F)(F)F)C3)c1,< 800
8,CC(C)(C)OC(=O)N[C@H]1CC[C@H](CNC(=O)Nc2nc3c(s2)-c2c(cnn2-c2ccccc2Cl)C3)CC1,< 800
9,CCn1cnc(CCNC(=O)Nc2nc3c(s2)-c2c(cnn2-c2cccc(F)c2C(F)(F)F)C3)c1,< 800
10,CC(C)(C)OC(=O)N1CCC(CNC(=O)Nc2nc3c(s2)-c2c(cnn2-c2ccccc2Cl)C3)CC1,< 800
11,O=C(NCc1ccn[nH]1)Nc1nc2c(s1)-c1c(cnn1-c1ccccc1C(F)(F)F)C2,< 800
12,CN(C)CCNC(=O)Nc1nc2c(s1)-c1c(cnn1-c1ccccc1C(F)(F)F)C2,< 800
13,CC(C)(C)OC(=O)NCC1CCCN1C(=O)Nc1nc2c(s1)-c1c(cnn1-c1ccccc1Cl)C2 (configuration not stated),< 800
14,Nc1nnc(CNC(=O)Nc2nc3c(s2)-c2c(cnn2-c2ccccc2C(F)(F)F)C3)[nH]1,< 800
15,CC(C)(C)OC(=O)CC1(O)CCN(C(=O)Nc2nc3c(s2)-c2c(cnn2-c2ccccc2Cl)C3)CC1,< 800
16,O=C(NCc1cccs1)Nc1nc2c(s1)-c1c(cnn1-c1ccccc1C(F)(F)F)C2,< 800
17,O=C(NCC1CC1)Nc1nc2c(s1)-c1c(cnn1-c1ccccc1Cl)C2,< 800
18,Nc1cc(CCNC(=O)Nc2nc3c(s2)-c2c(cnn2-c2ccccc2C(F)(F)F)C3)nn1C1CCCCC1,< 800
19,CCNC(=O)Nc1nc2c(s1)-c1c(cnn1-c1ccccc1Br)C2,< 800
20,O=C(Nc1nc2c(s1)-c1c(cnn1-c1ccccc1Cl)C2)Nc1ccccc1CN1CCNC1=O,< 800
21,Cn1cc(CCNC(=O)Nc2nc3c(s2)-c2c(cnn2-c2ccccc2C(F)(F)F)C3)cn1,< 800
22,O=C(NCc1cocn1)Nc1nc2c(s1)-c1c(cnn1-c1ccccc1C(F)(F)F)C2,< 800
23,CCCNC(=O)Nc1nc2c(s1)-c1c(cnn1-c1cc(F)ccc1C(F)(F)F)C2,< 800
24,CCc1cnc(CCNC(=O)Nc2nc3c(s2)-c2c(cnn2-c2ccccc2C(F)(F)F)C3)o1,< 800

row,SMILES,IC50 [nM]
1,CCn1nc(CNC(=O)Nc2nc3c(s2)-c2c(cnn2-c2ccccc2C(F)(F)F)C3)cc1N,< 800
2,CCCNC(=O)Nc1nc2c(s1)-c1c(cnn1-c1ccccc1C(F)(F)F)C2,< 800
3,CCCn1nc(CCNC(=O)Nc2nc3c(s2)-c2c(cnn2-c2ccccc2C(F)(F)F)C3)cc1N,< 800
4,CNC(=O)c1ccc(-n2ncc3c2-c2sc(NC(=O)NCc4cc(C5CC5)n[nH]4)nc2C3)c(C(F)(F)F)c1,< 800
5,O=C(NCCc1ccccc1)Nc1nc2c(s1)-c1c(cnn1-c1ccccc1Cl)C2,< 800
6,CCNC(=O)Nc1nc2c(s1)-c1c(cnn1-c1cccc(F)c1C(F)(F)F)C2,< 800
7,Cn1nc(CNC(=O)Nc2nc3c(s2)-c2c(cnn2-c2ccccc2C(F)(F)F)C3)cc1O,< 800
8,CC(C)c1noc(CCNC(=O)Nc2nc3c(s2)-c2c(cnn2-c2ccccc2C(F)(F)F)C3)n1,< 800
9,O=C(NCc1ccoc1)Nc1nc2c(s1)-c1c(cnn1-c1ccccc1C(F)(F)F)C2,< 800
10,CNC(=O)Nc1nc2c(s1)-c1c(cnn1-c1cccc(F)c1C(F)(F)F)C2,< 800
11,CCOC(=O)CCNC(=O)Nc1nc2c(s1)-c1c(cnn1-c1ccccc1Br)C2,< 800
12,CC(C)(C)OC(=O)CCNC(=O)Nc1nc2c(s1)-c1c(cnn1-c1cc(Cl)ccc1Cl)C2,< 800
13,CN(C)C(=O)CNC(=O)Nc1nc2c(s1)-c1c(cnn1-c1ccccc1C(F)(F)F)C2,< 800
14,O=C(Nc1nc2c(s1)-c1c(cnn1-c1ccccc1Cl)C2)N1CCCC(c2nc3ccccc3[nH]2)C1 (configuration not stated),< 800
15,O=C(NCc1nnn[nH]1)Nc1nc2c(s1)-c1c(cnn1-c1ccccc1C(F)(F)F)C2,< 800
16,O=C(NCc1cccc(N2CCNC2=O)c1)Nc1nc2c(s1)-c1c(cnn1-c1ccccc1Cl)C2,< 800
17,O=C(NCc1ncc[nH]1)Nc1nc2c(s1)-c1c(cnn1-c1ccccc1Cl)C2,< 800
18,CC(C)c1nnc(CCNC(=O)Nc2nc3c(s2)-c2c(cnn2-c2ccccc2Cl)C3)o1,< 800
19,CC1(C)NC(=O)N(Cc2ccc(CNC(=O)Nc3nc4c(s3)-c3c(cnn3-c3ccccc3Cl)C4)cc2)C1=O,< 800
20,CCCCNC(=O)Nc1nc2c(s1)-c1c(cnn1-c1cccc(F)c1C(F)(F)F)C2,< 800
21,Cc1cc(C)n(CCNC(=O)Nc2nc3c(s2)-c2c(cnn2-c2ccccc2C(F)(F)F)C3)n1,< 800
22,CCNC(=O)Nc1nc2c(s1)-c1c(cnn1-c1cc(Cl)ccc1Cl)C2,< 800
23,CCN1CCC2(CCN(C(=O)Nc3nc4c(s3)-c3c(cnn3-c3ccccc3Cl)C4)C2)C1 (configuration not stated),< 800
24,CC(C)(NC(=O)Nc1nc2c(s1)-c1c(cnn1-c1ccccc1Cl)C2)C1Nc2ccccc2NC1=O (configuration not stated),< 800

# Further lines, results first:
row,IC50 [nM],SMILES
1,< 800,O=C(NCc1ccccc1)Nc1nc2c(s1)-c1c(cnn1-c1ccccc1C(F)(F)F)C2
2,< 800,O=C(NCc1nnc(-c2ccccc2)o1)Nc1nc2c(s1)-c1c(cnn1-c1ccccc1C(F)(F)F)C2
3,< 800,Cn1cc(CNC(=O)Nc2nc3c(s2)-c2c(cnn2-c2ccccc2Cl)C3)cn1
4,< 800,CN(C)C(=O)CNC(=O)Nc1nc2c(s1)-c1c(cnn1-c1ccccc1Cl)C2
5,< 800,O=C(NCCc1cccnc1)Nc1nc2c(s1)-c1c(cnn1-c1ccccc1Cl)C2
6,< 800,Nc1cc(CNC(=O)Nc2nc3c(s2)-c2c(cnn2-c2ccccc2C(F)(F)F)C3)[nH]n1
7,< 800,CC(C)(C)OC(=O)N1CCCCC1CNC(=O)Nc1nc2c(s1)-c1c(cnn1-c1ccccc1Cl)C2 (configuration not stated)
8,< 800,CCCn1ccc(CNC(=O)Nc2nc3c(s2)-c2c(cnn2-c2ccccc2C(F)(F)F)C3)n1
9,< 800,CC(C)c1cnc(CCNC(=O)Nc2nc3c(s2)-c2c(cnn2-c2ccccc2Cl)C3)o1
10,< 800,CC(C)NC(=O)Nc1nc2c(s1)-c1c(cnn1-c1ccccc1C(F)(F)F)C2
11,< 800,CN(C)C(=O)CNC(=O)Nc1nc2c(s1)-c1c(cnn1-c1cc(Cl)ccc1Cl)C2
12,< 800,CCc1nnc(CCNC(=O)Nc2nc3c(s2)-c2c(cnn2-c2ccccc2Cl)C3)o1
13,< 800,O=C(NCCc1ccccn1)Nc1nc2c(s1)-c1c(cnn1-c1ccccc1Cl)C2
14,< 800,CC(C)(C)c1cc(CNC(=O)Nc2nc3c(s2)-c2c(cnn2-c2ccccc2C(F)(F)F)C3)[nH]n1
15,< 800,CC(C)(C)c1cc(N)n(CCNC(=O)Nc2nc3c(s2)-c2c(cnn2-c2ccccc2C(F)(F)F)C3)n1
16,< 800,Cn1nc(CNC(=O)Nc2nc3c(s2)-c2c(cnn2-c2ccccc2C(F)(F)F)C3)cc1N
17,< 800,CC(C)(C)CNC(=O)Nc1nc2c(s1)-c1c(cnn1-c1ccccc1Cl)C2
18,< 800,Cc1cc(-c2ccccc2)n(CCNC(=O)Nc2nc3c(s2)-c2c(cnn2-c2ccccc2C(F)(F)F)C3)n1
19,< 800,CC(C)c1cnc(CCNC(=O)Nc2nc3c(s2)-c2c(cnn2-c2ccccc2C(F)(F)F)C3)o1
20,< 800,CC(C)(C)OC(=O)N1CCC[C@@H]1CNC(=O)Nc1nc2c(s1)-c1c(cnn1-c1ccccc1C(F)(F)F)C2
21,< 800,O=C(O)CCCNC(=O)Nc1nc2c(s1)-c1c(cnn1-c1ccccc1C(F)(F)F)C2
22,< 800,O=C(NCc1cc(C2CC2)n[nH]1)Nc1nc2c(s1)-c1c(cnn1-c1ccccc1C(F)(F)F)C2

row,IC50 [nM],SMILES
1,< 800,Nc1cc(CCNC(=O)Nc2nc3c(s2)-c2c(cnn2-c2ccccc2C(F)(F)F)C3)nn1CC(F)(F)F
2,< 800,O=C(NCc1cccc(C(=O)NC2CCCCC2)c1)Nc1nc2c(s1)-c1c(cnn1-c1ccccc1Cl)C2
3,< 800,Nc1cc(-c2ccccc2)nn1CCNC(=O)Nc1nc2c(s1)-c1c(cnn1-c1ccccc1C(F)(F)F)C2
4,< 800,CCn1cnc(CCNC(=O)Nc2nc3c(s2)-c2c(cnn2-c2ccccc2Br)C3)c1
5,< 800,O=C(NCCc1ccncc1)Nc1nc2c(s1)-c1c(cnn1-c1ccccc1Cl)C2
6,< 800,CN(Cc1ccco1)C(=O)Nc1nc2c(s1)-c1c(cnn1-c1ccccc1C(F)(F)F)C2
7,< 800,O=C(Nc1nc2c(s1)-c1c(cnn1-c1ccccc1Cl)C2)N1CCC(N2CCNC2=O)CC1
8,< 800,O=C(NCc1ccccn1)Nc1nc2c(s1)-c1c(cnn1-c1ccccc1C(F)(F)F)C2
9,< 800,Cc1cc(-c2ccco2)n(CCNC(=O)Nc2nc3c(s2)-c2c(cnn2-c2ccccc2C(F)(F)F)C3)n1
10,< 800,CCCNC(=O)Nc1nc2c(s1)-c1c(cnn1-c1ccc(C(=O)NC)cc1C(F)(F)F)C2
11,< 800,Nc1cc(CNC(=O)Nc2nc3c(s2)-c2c(cnn2-c2ccccc2C(F)(F)F)C3)nn1-c1ccccc1
12,< 800,Nc1cc(CCNC(=O)Nc2nc3c(s2)-c2c(cnn2-c2ccccc2C(F)(F)F)C3)nn1CCO
13,< 800,Cc1cc(=O)n(CCNC(=O)Nc2nc3c(s2)-c2c(cnn2-c2ccccc2C(F)(F)F)C3)[nH]1
14,< 800,CNC(=O)Nc1nc2c(s1)-c1c(cnn1-c1ccccc1Br)C2
15,< 800,CCCCNC(=O)Nc1nc2c(s1)-c1c(cnn1-c1ccccc1Cl)C2
16,< 800,O=C1Cc2ccccc2CN1CC1CCN(C(=O)Nc2nc3c(s2)-c2c(cnn2-c2ccccc2Cl)C3)C1 (configuration not stated)
17,< 800,CC(C)(C)OC(=O)N1CCC[C@@H]1CNC(=O)Nc1nc2c(s1)-c1c(cnn1-c1ccccc1Cl)C2
18,< 800,O=C(NCc1cc(C2CC2)n[nH]1)Nc1nc2c(s1)-c1c(cnn1-c1cccc(F)c1C(F)(F)F)C2
19,< 800,NC(=O)c1cccc(CNC(=O)Nc2nc3c(s2)-c2c(cnn2-c2ccccc2Cl)C3)c1
20,< 800,O=C(NCc1cc(C2CC2)n[nH]1)Nc1nc2c(s1)-c1c(cnn1-c1ccccc1Br)C2
21,< 800,CCc1noc(CCNC(=O)Nc2nc3c(s2)-c2c(cnn2-c2ccccc2C(F)(F)F)C3)n1
22,< 800,Cc1cc(CNC(=O)Nc2nc3c(s2)-c2c(cnn2-c2ccccc2C(F)(F)F)C3)nn1C

# — the Kinase Knowledgebase extract (Sharma et al. 2016)
